The structures appear in SMILES notation. Read-outs that look alike come from different tables or passages of the source.

Assay [1] relates to A2780 ovarian cancer cells. Description: Alamar Blue cell proliferation assay, A2780. Format: cell-based, human. The settings on record: 4-day incubation; for IC50: Homo sapiens, A2780, 96 h, read-out: A2780 cell proliferation inhibition pIC50 (converted). On the procedure:
The human A2780 ovarian cancer cells were a kind gift from Dr. T. C. Hamilton (Fox Chase Cancer Centre, Pennsylvania, U.S.A.). The cells were cultured in RPMI 1640 medium supplemented with 2 mM L-Glutamine, 50 μg/ml gentamicin and 10% fetal calf serum.
Potassium Phosphate Buffer 0.1 M (PPB) was made as follows: 2.72 gram KH2PO4 and 13.86 gram K2HPO4 were dissolved in 500 ml milli-Q H2O, the pH was adjusted to pH 7.4 and the volume was brought to 1 liter with milli-Q H2O; the buffer was filter sterilised and stored at room temperature. Resazurin stock solution (PPB-A) was prepared fresh by dissolving 45 mg resazurin in 15 ml PBS. 30 mM potassium ferricyanide (PPB-B) was prepared by dissolving 0.987 gram potassium ferricyanide in 100 ml PPB. 30 mM potassium ferrocyanide (PPB-C) was prepared by dissolving 1.266 gram potassium ferrocyanide in 100 ml PPB.
Mixture of PPB-A, PPB-B and PPB-C was prepared by mixing equal volumes of the respective solutions. Resazurin work solution (herein termed “Alamar Blue” solution) was prepared by diluting said mixture 20×(vol/vol) in PPB and filter sterilising; the Alamar Blue solution could be kept at 4° C. for a maximum of 2 weeks.
(§1) For experiments in 384 wells plates the cells were seeded at a density of 5×10^3 cells/ml in Falcon 384-well culture plates (Life Technologies, Merelbeke, Belgium), black with clear bottom, in 45 μl culture medium. Cells were allowed to adhere to plastic for 24 hr. The tested compound was pre-diluted (1/50 in culture medium) and 5 μl pre-diluted compound was added to the wells. Following 4-day incubation, 10 μl of the Alamar Blue solution was added to each well and the cells were further incubated for 5 hrs (A2780) at 37° C. The fluorescence intensity was measured for each well with a Fluorescence plate reader (Fluorskan, Labsystems, 540 nm excitation and 590 nm emission)
(§2) The antiproliferative activity was calculated as percentage of remaining viable cells in treated versus control (untreated cells) conditions. Within an experiment, the result for each experimental condition is the mean of 3 replicate wells. When appropriate, the experiments were repeated to establish full concentration-response curves. When appropriate, IC50-values (concentration of the drug, needed to reduce cell growth to 50% of the control) were computed using probit analysis for graded data (Finney, D. J., Probit Analyses, 2nd Ed. Chapter 10, Graded Responses, Cambridge University Press, Cambridge 1962). Herein the effects of test compounds are expressed as pIC50 (the negative log value of the IC50-value (M)) (see Table 5A).
(The colour change of resazurin is a common sign of viable cells or microbes.)

Assay [2] relates to non-small cell lung cancer cell line H1299. Description: Alamar Blue cell proliferation assay, H1299. Format: cell-based. The settings on record: for IC50: Homo sapiens, NCI-H1299, H1299 cells, read-out: H1299 cell proliferation inhibition pIC50 (converted); for H1299 cell proliferation inhibition pIC50: H1299 cells. As for the experimental part: as §1, §2
(§3) Compounds were also tested according to the above protocol but using other cell lines: colorectal cancer cell line HCT116, non-small cell lung cancer cell line H1299, human prostate cancer cell line DU145.

The test system of assay [3] is human prostate cancer cell line DU145. Description: Alamar Blue cell proliferation assay, DU145. The following applies: for IC50: Homo sapiens, DU-145, DU145 cells, read-out: DU145 cell proliferation inhibition pIC50 (converted); for DU145 cell proliferation inhibition pIC50: DU145 cells. It counts as cell-based. As for the experimental part: as §1, §2, §3
The test system of assay [4] is human U87 glioma tumor. Description: In vivo anti tumour effects, U87 glioma xenograft. The following applies: U87 xenograft in NMRI Nude mice, 20 mg/kg p.o. QD for 5 days; for response vs control in vivo at 20 mg/kg: Mus musculus, U-87 MG, po. As for the experimental part: Immuno-deficient (athymic) male NMRI Nude (Nu/Nu) mice (20-25 g obtained from Janvier, France) were used for these studies. Initial weight was approximately […]. All animals were maintained under SPF “full barrier” conditions with free access to food and water. Mice were group housed under a 12-h light:dark cycle (lights on at 06:00 h) at a temperature of 19 to 22° C. and 35 to 40% humidity in Techniplast type-3 IVC cages. Mice were fed a standard Laboratory chow. All experiments were carried out in accordance with the European Communities Council Directives (86/609/EEC) and had to be approved by the local ethical committee. For an established tumor xenograft model (tumor volume ˜200 mm^3), mice were randomized according to tumor volumes, with 5 mice per treatment group.
The human U87 glioma tumor cell line was derived from a patient. Cells were cultured at 37° C. in a humidified atmosphere (5% CO2, 95% air), in DMEM medium supplemented with 2 mM L-glutamine, 2.0 mM sodium pyruvate, 25 units/ml penicillin/25 μg/ml streptomycin and 10% fetal bovine serum. Cells were maintained as cell monolayer cultures, being passaged twice weekly at 3×10^6 cells per T175 flask using the following procedure. Briefly cells were washed with PBS (without Mg^2+, Ca^2+), before addition of trypsin-EDTA to the culture flasks. After detachment of cells the trypsin-EDTA was inactivated by addition of complete medium. Cell suspension was then transferred to 50 ml Falcon tube and centrifuged for 3 min at 1200 rpm. Medium was aspirated, with the cells being re-suspended in an appropriate volume of complete medium. The cells were counted in a haemocytometer and their viability was assessed by 0.25% trypan blue exclusion. An appropriate volume of cell suspension was then added to either a new T175 culture flask(s) or roller bottle containing fresh medium. For large scale-up growth of U87 tumor cells, an appropriate number of roller bottles were seeded with 0.5 to 1×10^7 cells 1 week prior to inoculation of mice. The medium was changed twice during this period, with the last change being the day prior to cell injection. Cells were collected as described above, with the exception that after centrifugation, the cells were re-suspended in cold (4° C.) serum-free medium. Mice were injected in the inguinal region with 1×10^7 cells total in a 200 μl volume.
Human U87 glioma cells were injected directly into the inguinal region of the male NMRI Nude mice (1×10^7 cells/200 μl/animal) on day 0 (D0). On day 7-10 (can vary due to tumor take/growth between cell batches) when tumor volume had reached an approximate average of 200 mm^3, mice were randomized according to tumor volume, with 5 mice per treatment group. Mice were then treated once daily (QD) with either vehicle (10% HP-β-CD) or vehicle containing test compound (20 mg/kg) by gavage (p.o.) administered in a volume of 10 ml/kg body weight for 5 days. Specific tumor measurements were taken on day 6 (24 hours post 5th dose) and then again on day 10. Tumor re-growth (after dosing has stopped) was monitored so that the time-to-reach a volume of 2000 mm^3 (TTR2000) can be recorded. This gives extra information on the duration of drug action on the tumor growth. In general, tumor size and body weights were measured twice weekly, with mice monitored daily for clinical signs of toxicity for the duration of the treatment. Clinical signs of toxicity included (but not limited to), persistent anorexia or dehydration, posture, moribund, lethargy, hypothermia and/or laboured respiration (according to the UKCCCR guidelines for welfare of animals in experimental neoplasia (The UKCCCR (UK Coordinating Committee on Cancer Research) guidelines for the welfare of animals in experimental neoplasia (July 1997); and Workman, P. et al. UKCCCR guideline. Br. J. Cancer. 1998, 77: 1-10). […]

[5] abbreviates: 144 h, day 6 after start dosing, read-out: % T/C day 6.
[6] abbreviates: 240 h, day 10 after start dosing, read-out: % T/C day 10.

Regarding `Cc1cc(Nc2ccnc3c2CCC3(C)O)ccc1NCCc1c[nH]c2c(C(C)(C)O)cccc12` (stereo not shown) [Compound 1], the results for the IC50 in assay [1], in assay [2] and in assay [3] were 115 nM, 871 nM and 1200 nM, respectively. Also, the response vs control in vivo at 20 mg/kg came out at 17% in assay [4] (setting [5]) and 8% in assay [4] (setting [6]).
With `Cc1cc(Nc2ccncc2)ccc1NCCc1c[nH]c2c(C(C)(C)O)cccc12` [Compound 2], the IC50 was 41.7 nM in assay [1], 1150 nM in assay [2] and 692 nM in assay [3]. Further, the response vs control in vivo at 20 mg/kg in assay [4] (setting [5]) is 14%; in assay [4] (setting [6]) it was -0.23%.
With `Cc1cc(Nc2ccnc3c2CCC3=O)ccc1NCCc1c[nH]c2c(C(C)O)cccc12` (stereo not shown) [Compound 4], the IC50 in assay [1] is 182 nM; in assay [2], 3720 nM; in assay [3], 5130 nM. Also, the response vs control in vivo at 20 mg/kg in assay [4] (setting [5]) turned out to be 77%; in assay [4] (setting [6]), 129%.
Taken in the same sequence, the figures for `Cc1cc(Nc2ccnc(CO)c2)ccc1NCCc1c[nH]c2c(C(C)O)cccc12` (stereo not shown) [Compound 5] were 52.5 nM, 5890 nM, 2750 nM, 103% and 67%.
`Cc1cc(Nc2ccnc3c2CCC3O)ccc1NCCc1c[nH]c2c(CCC(C)O)cccc12` (stereo not shown) [Compound 9]: the IC50 in assay [1] is 141 nM; in assay [2] it was 6760 nM; in assay [3], 5500 nM. For the same compound, the response vs control in vivo at 20 mg/kg was 145% in assay [4] (setting [5]) and 113% in assay [4] (setting [6]).
For the compound `Cc1cc(Nc2ccnc3c2CCC3(C)O)ccc1NCCc1c[nH]c2c(C(C)O)cccc12` (stereo not shown) [Compound 10], the “A2780 cell proliferation inhibition pIC50” value in assay [1] is on record as 6.70. The “H1299 cell proliferation inhibition pIC50” value in assay [2] amounted to 5.68. The “DU145 cell proliferation inhibition pIC50” value in assay [3] was 5.65. The “% T/C day 6” value in assay [4] (day 6 after start dosing) stood at 96%. For the same compound, the “% T/C day 10” value in assay [4] (day 10 after start dosing) was 71%.
Regarding `COc1cc(Nc2ccnc3c2CCC3O)ccc1NCCc1c[nH]c2c(C(C)(C)O)cccc12` (stereo not shown) [Compound 11], in assay [1], the “A2780 cell proliferation inhibition pIC50” value stood at 6.55. In addition, the “H1299 cell proliferation inhibition pIC50” value in assay [2] amounted to 5.81. For the same compound, in assay [3], the “DU145 cell proliferation inhibition pIC50” value was found to be 6.21. The “% T/C day 6” value in assay [4] (day 6 after start dosing) was 72%. Also, the “% T/C day 10” value in assay [4] (day 10 after start dosing) was determined as 79%.
The matching figures for `COC1CCc2c(Nc3ccc(NCCc4c[nH]c5c(C(C)O)cccc45)c(C)c3)ccnc21` (stereo not shown) [Compound 16]: 6.87, 6.73, 5.98, 63% and 64%.
As to `Cc1cc(Nc2ccnc3c2CCC3O)ccc1NCCc1c[nH]c2c(C(C)(C)O)cccc12` (stereo not shown) [Compound 18], the “A2780 cell proliferation inhibition pIC50” value in assay [1] worked out at 7.47. Further, the “H1299 cell proliferation inhibition pIC50” value in assay [2] is given as 6.38. The “DU145 cell proliferation inhibition pIC50” value in assay [3] worked out at 6.40. Also, the values for the response vs control in vivo at 20 mg/kg in assay [4] (setting [5]) and in assay [4] (setting [6]) were 9% and -3%, respectively.
In the case of `Cc1cc(Nc2ccnc(CO)c2)ccc1NCCc1c[nH]c2c(C(C)(C)O)cccc12` [Compound 19], in assay [1], the “A2780 cell proliferation inhibition pIC50” value was found to be 7.34. Besides, the “H1299 cell proliferation inhibition pIC50” value in assay [2] is recorded as 5.46. Further, in assay [3], the “DU145 cell proliferation inhibition pIC50” value turned out to be 5.74. In addition, the “% T/C day 6” value in assay [4] (day 6 after start dosing) is recorded as 57%. In assay [4] (day 10 after start dosing), the “% T/C day 10” value is reported as 40%.
The matching figures for `Cc1cc(Nc2ccncc2)ccc1NCCc1c[nH]c2c(C(O)C(C)C)cccc12` (stereo not shown) [Compound 22]: 6.26, 5.09, 5.07, 40% and 55%.

These data come from patent US8541442B2, “Indole derivatives as anticancer agents” (Janssen Pharmaceutica N.V., priority 2009, dated 2013).
